Each block holds one molecule with its values, some of them ahead of it.
Key:
Caco-2 line = assay: Permeability of carbon 14-labelled acamprosate with promoting agents in the Caco-2 cellular model (diffusion chamber); assay type: in vitro ADME, human; settings: Papp of acamprosate
Source text: (§1) Actions of various promoting agents or mixtures of promoting agents on the permeability of calcium acetylhomotaurinate, in the Caco-2 cellular model.
(§2) A solution of carbon 14-labelled acamprosate, of known concentration, is placed in the apical compartment of a Grass Sweetana-type diffusion chamber which comprises a second so-called basolateral compartment separated from the first by an insert supporting a monocellular confluent culture of human colon adenocarcinoma […] epithelial cells, Caco-2 line.
(§3) Samples are collected at regular intervals from the second basolateral compartment. The acamprosate concentration is determined by […]. A simple calculation makes it possible to obtain the apparent permeability coefficient (Papp). The acamprosate solution is supplemented with various promoting agents or mixtures of promoting agents, under varying conditions. The influence of these agents on the apparent permeability coefficient (Papp) was measured. The experimental results are grouped together in the following table where the apparent permeability coefficient values (Papp) are expressed in cm/s.

[1] = as above; assay type: in vitro ADME, human; settings: human, Caco-2; acamprosate solution, promoting agent: None; apical to basolateral; read-out: Papp, Mean (n = 6)
Source text: as §1, §2, §3

Structure (SMILES): CCCCCCCCCC(=O)O [Capric]
Papp, Mean (n = 6) (Caco-2 line; promoting agent Conc. 0.25 % m/v): 63.6 10^−7 cm/s

Structure (SMILES): CC(=O)NCCCS(=O)(=O)O [acamprosate, calcium 3-acetylamino-1-propanesulphonate, reference compound]
Papp A→B [1]: 2.4 ×10⁻⁶ cm/s

Papp, Mean (n = 6) (Caco-2 line; promoting agent Conc. 0.2 % m/v): 114 10^−7 cm/s
Structure (SMILES): C[C@H](CCC(=O)NCC(=O)[O-])[C@H]1CC[C@H]2[C@@H]3[C@H](O)C[C@@H]4C[C@H](O)CC[C@]4(C)[C@H]3C[C@H](O)[C@]12C.[Na+] [Na glycocholate, sodium glycocholate]
